Values of other authors, collected in patent US20050232952A1, “Self emulsifying drug delivery systems for poorly soluble drugs” (priority 2002, published 2005).

Details: humans

## CC(=O)O[C@H]1C(=O)[C@@]2(C)[C@H]([C@H](OC(=O)c3ccccc3)[C@]3(O)C[C@H](OC(=O)[C@H](O)[C@@H](NC(=O)c4ccccc4)c4ccccc4)C(C)=C1C3(C)C)[C@]1(OC(C)=O)CO[C@@H]1C[C@@H]2O [paclitaxel, Paclitaxel]
  systemic bioavailability after oral paclitaxel administration: less than 6%
